System: F9A6-CD4 T cell hybridoma overlaid on M. tuberculosis-infected macrophages
Experiment: Ex vivo MTB Ag85B antigen presentation to CD4 T cells (IL-2 ELISA)
Type: cell-based, human
Settings: concurrent activation; decrease for MO-TDM compared to TDM and MO
Description: Briefly, M. tuberculosis-infected MΦs were washed after a 4-hour infection and overlaid with the F9A6-CD4 T cell hybridoma which recognizes an Ag85B epitope in the context of human HLA-DR1. IL-2 secreted from hybridoma T cells or other cytokines secreted from M. tuberculosis-infected MΦs were determined using a sandwich ELISA kit (Biolegend).
By inhibiting the phagosome lysosome fusion in macrophages, TDM not only protects the M. tuberculosis bacilli from intracellular killing but also reduces the priming of T cells due to reduced processing of Mycobacterial antigens in lysosomal compartments. Since increased killing of intracellular MTB in macrophages was observed when they were stimulated with a cubosomal MO-TDM (1 mol %) preparation, it indicated a possible increase in lysosmal processing of its antigens. […] An in vitro antigen presentation assay using a CD4 hybridoma T cell that recognizes a specific epitope of Ag85B was adopted to determine the priming of T cells by macrophages that were stimulated with MO, TDM and MO-TDM (1 mol %). Secreted levels of IL-2 by hybridoma T cells upon overlay to M. tuberculosis infected macrophages with and without stimulation with MO, TDM and MO-TDM (1 mol %) were monitored in a time dependent manner (FIG. 9).

## trehalose 6,6′ dimycolate [TDM]
  antigen presentation to T cells (secreted IL-2 levels), change from day 3 to day 5 post infection: decreased sharply

Source: patent publication US20250339517A1, “LIPID N[…]” (priority 2022, published 2025)
